Data: ChEMBL document CHEMBL5620409, “Discovery of tetrasubstituted thiophenes as Cisd2 activators: A potential novel therapeutic option in nonalcoholic fatty liver disease” (Eur J Med Chem, 2023)
The source made the active and inactive calls. The calls are words filed in the database; no cut-off is given here.

Experiments:
[1] = molecular target: T1, CDGSH iron-sulfur domain-containing protein 2 (Homo sapiens, UniProt Q8N5K1); assay: Activation of Cisd2 (unknown origin) transfected in HEK293 cells incubated for 24 hrs by one-glo luciferase assay; assay type: cell-based
T1 sequence (Q8N5K1 whole entry): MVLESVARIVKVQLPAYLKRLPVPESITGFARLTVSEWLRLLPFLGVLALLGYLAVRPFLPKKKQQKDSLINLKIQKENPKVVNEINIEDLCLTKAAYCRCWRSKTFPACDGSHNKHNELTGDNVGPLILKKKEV

[2] = Metabolic stability in mouse liver microsomes assessed as parent compound remaining at 5 uM in presence of NADPH-generating system measured for 30 mins by LC/MS analysis; assay type: ADME, Microsome; conditions: read-out: Stability
[3] = Toxicity in wild type C57BL/6 mouse assessed as change in liver histology at 20 mg/kg, po administered for 2 weeks; assay type: organism-based; conditions: in vivo, 336 h
[4] = Toxicity in heterozygous hepatocyte-specific Cisd2 knockout C57BL/6 mouse assessed as effect on body weight at 20 mg/kg, po measured for 2 weeks; assay type: organism-based; conditions: in vivo, 336 h
[5] = Toxicity in heterozygous hepatocyte-specific Cisd2 knockout C57BL/6 mouse assessed as effect on AST level in serum at 20 mg/kg, po administered for 2 weeks; assay type: organism-based; conditions: in vivo, 336 h
[6] = Toxicity in wild type C57BL/6 mouse assessed as effect on CRE level in serum at 20 mg/kg, po administered for 2 weeks; assay type: organism-based; conditions: in vivo, 336 h
[7] = system: Mus musculus; assay: Anti-NAFLD activity in wild type C57BL/6 mouse assessed as effect on triglyceride level in serum at 20 mg/kg, po measured for 12 week; assay type: functional, organism-based; conditions: time 12.0 weeks
[8] = system: Mus musculus; assay: Anti-NAFLD activity in heterozygous hepatocyte-specific Cisd2 knockout C57BL/6 mouse assessed as fold increase in Cisd2 expression in liver at 20 mg/kg, po measured for 12 week by Western blot analysis; assay type: functional; conditions: time 12 weeks
[9] = Toxicity in wild type C57BL/6 mouse assessed as food intake at 20 mg/kg, po measured for 5 consecutive days; assay type: organism-based; conditions: in vivo, 120 h, time 5 day
[10] = system: Mus musculus; assay: Anti-NAFLD activity in heterozygous hepatocyte-specific Cisd2 knockout C57BL/6 mouse assessed as reduction in ballooning degeneration of hepatocytes at 20 mg/kg, po measured for 2 weeks by H and E staining based analysis; assay type: functional, organism-based
[11] = Toxicity in wild type C57BL/6 mouse assessed as effect on AST level in serum at 20 mg/kg, po administered for 2 weeks; assay type: organism-based; conditions: in vivo, 336 h
[12] = Toxicity in heterozygous hepatocyte-specific Cisd2 knockout C57BL/6 mouse assessed as effect on ALT level in serum at 20 mg/kg, po administered for 2 weeks; assay type: organism-based; conditions: in vivo, 336 h
[13] = Toxicity in wild type C57BL/6 mouse assessed as effect on GPT level in serum at 20 mg/kg, po administered for 2 weeks; assay type: organism-based; conditions: in vivo, 336 h
[14] = Toxicity in wild type C57BL/6 mouse assessed as effect on BUN level in serum at 20 mg/kg, po administered for 2 weeks; assay type: organism-based; conditions: in vivo, 336 h
[15] = system: Mus musculus; assay: Anti-NAFLD activity in heterozygous hepatocyte-specific Cisd2 knockout C57BL/6 mouse assessed as abnormal hepatic lipid accumulation in liver at 20 mg/kg, po measured for 2 weeks; assay type: functional, organism-based
[16] = Toxicity in heterozygous hepatocyte-specific Cisd2 knockout C57BL/6 mouse assessed as effect on GOT level in serum at 20 mg/kg, po administered for 2 weeks; assay type: organism-based; conditions: in vivo, 336 h
[17] = Toxicity in heterozygous hepatocyte-specific Cisd2 knockout C57BL/6 mouse assessed as effect on GPT level in serum at 20 mg/kg, po administered for 2 weeks; assay type: organism-based; conditions: in vivo, 336 h
[18] = Toxicity in heterozygous hepatocyte-specific Cisd2 knockout C57BL/6 mouse assessed as effect on CRE level in serum at 20 mg/kg, po administered for 2 weeks; assay type: organism-based; conditions: in vivo, 336 h
[19] = system: Mus musculus; assay: Anti-NAFLD activity in heterozygous hepatocyte-specific Cisd2 knockout C57BL/6 mouse assessed as effect on triglyceride level in serum at 20 mg/kg, po measured for 12 week; assay type: functional, organism-based; conditions: time 12.0 weeks
[20] = system: Mus musculus; assay: Anti-NAFLD activity in heterozygous hepatocyte-specific Cisd2 knockout C57BL/6 mouse assessed as reduction in accumulation of fat in liver at 20 mg/kg, po measured for 2 weeks by oil red-O staining based analysis; assay type: functional, organism-based
[21] = Toxicity in wild type C57BL/6 mouse assessed as effect on body weight at 20 mg/kg, po measured for 2 weeks; assay type: organism-based; conditions: in vivo, 336 h
[22] = Toxicity in wild type C57BL/6 mouse assessed as effect on GOT level in serum at 20 mg/kg, po administered for 2 weeks; assay type: organism-based; conditions: in vivo, 336 h
[23] = Toxicity in wild type C57BL/6 mouse assessed as effect on ALT level in serum at 20 mg/kg, po administered for 2 weeks; assay type: organism-based; conditions: in vivo, 336 h
[24] = Toxicity in heterozygous hepatocyte-specific Cisd2 knockout C57BL/6 mouse assessed as effect on BUN level in serum at 20 mg/kg, po administered for 2 weeks; assay type: organism-based; conditions: in vivo, 336 h
[25] = system: Mus musculus; assay: Anti-NAFLD activity in wild type C57BL/6 mouse assessed as fold increase in Cisd2 expression in liver at 20 mg/kg, po measured for 12 week by Western blot analysis; assay type: functional; conditions: time 12 weeks
[26] = system: Mus musculus; assay: Anti-NAFLD activity in heterozygous hepatocyte-specific Cisd2 knockout C57BL/6 mouse assessed as reduction in hepatic steatosis in liver at 20 mg/kg, po measured for 2 weeks by H and E staining based analysis; assay type: functional, organism-based

COC(=O)c1c(N)sc(C(=O)Nc2nc3ccccc3s2)c1C
EC50 [1]: > 10000 nM

COC(=O)c1c(N)sc(C(=O)Nc2ccccc2)c1C
remaining at 0.5 h, 5 µM [2]: 63.5%
EC50 [1]: 95 nM

COC(=O)c1c(NC(C)=O)sc(C(=O)Nc2ccc(C)cc2C)c1C
EC50 [1]: 4440 nM

CC(=O)c1c(N)sc(C(=O)Nc2ccc(C)cc2C)c1C
remaining at 0.5 h, 5 µM [2]: 0%
EC50 [1]: 164 nM

CC(=O)c1c(N)sc(C(=O)Nc2ccccc2)c1C
EC50 [1]: 553 nM

CNc1sc(C(=O)Nc2ccc(C)cc2C)c(C)c1C(=O)OC
EC50 [1]: > 10000 nM

COC(=O)c1c(N)sc(C(=O)Nc2cccnc2)c1C
EC50 [1]: 661 nM

COC(=O)c1c(N)sc(C(=O)Nc2nccs2)c1C
remaining at 0.5 h, 5 µM [2]: 44.5%
EC50 [1]: 153 nM

COC(=O)c1c(N)sc(C(=O)Nc2cccc(OC)c2)c1C
remaining at 0.5 h, 5 µM [2]: 59.2%
EC50 [1]: 23 nM

COC(=O)c1c(N)sc(C(=O)Nc2ccc(C(F)(F)F)cc2)c1C
EC50 [1]: 252 nM

COC(=O)c1cc(C(=O)Nc2ccc(C)cc2C)sc1N
EC50 [1]: 2080 nM

COC(=O)c1c(N)sc(C(=O)Nc2ccc(C)cc2C)c1C
remaining at 0.5 h, 5 µM [2]: 27.6%
EC50 [1]: 46 nM

COC(=O)c1c(N)sc(C(=O)Nc2ccc(F)cc2)c1C
Activity [3]: Non-Toxic
Activity [4]: Non-Toxic
Activity [5]: Non-Toxic
Activity [6]: Non-Toxic
Activity [7]: Active
fold change (FC) [8]: 2
Activity [9]: Non-Toxic
remaining at 0.5 h, 5 µM [2]: 84.9%
Activity [10]: Active
Activity [11]: Non-Toxic
Activity [12]: Non-Toxic
Activity [13]: Non-Toxic
Activity [14]: Non-Toxic
EC50 [1]: 34 nM
Activity [15]: Active
Activity [16]: Non-Toxic
Activity [17]: Non-Toxic
Activity [18]: Non-Toxic
Activity [19]: Active
Activity [20]: Active
Activity [21]: Non-Toxic
Activity [22]: Non-Toxic
Activity [23]: Non-Toxic
Activity [24]: Non-Toxic
fold change (FC) [25]: 1.3
Activity [26]: Active

COC(=O)c1c(N)sc(C(=O)Nc2c(C)cc(C)cc2C)c1C
EC50 [1]: 1700 nM

COC(=O)c1c(N)sc(C(=O)Nc2ccccc2C)c1C
remaining at 0.5 h, 5 µM [2]: 53.3%
EC50 [1]: 233 nM

COC(=O)c1c(N)sc(C(=O)Nc2ccc(OC)cc2)c1C
remaining at 0.5 h, 5 µM [2]: 73.6%
EC50 [1]: 12 nM

Cc1ccc(NC(=O)c2sc(N)c(C#N)c2C)c(C)c1
EC50 [1]: 2670 nM

COC(=O)c1c(N)sc(C(=O)Nc2ccc(O)cc2)c1C
Activity [3]: Non-Toxic
Activity [4]: Non-Toxic
Activity [5]: Non-Toxic
Activity [6]: Non-Toxic
Activity [7]: Active
fold change (FC) [8]: 2
Activity [9]: Non-Toxic
remaining at 0.5 h, 5 µM [2]: 91.8%
Activity [10]: Active
Activity [11]: Non-Toxic
Activity [12]: Non-Toxic
Activity [13]: Non-Toxic
Activity [14]: Non-Toxic
EC50 [1]: 191 nM
Activity [15]: Active
Activity [16]: Non-Toxic
Activity [17]: Non-Toxic
Activity [18]: Non-Toxic
Activity [19]: Active
Activity [20]: Active
Activity [21]: Non-Toxic
Activity [22]: Non-Toxic
Activity [23]: Non-Toxic
Activity [24]: Non-Toxic
fold change (FC) [25]: 1.3
Activity [26]: Active

COC(=O)c1c(N)sc(C(=O)Nc2cccc(C)c2)c1C
remaining at 0.5 h, 5 µM [2]: 53.8%
EC50 [1]: 35 nM

Cc1ccc(NC(=O)c2sc(N)c(C(=O)OC(C)(C)C)c2C)c(C)c1
EC50 [1]: 1340 nM

COC(=O)c1c(N)sc(C(=O)Nc2cc(OC)c(OC)c(OC)c2)c1C
EC50 [1]: 2180 nM

COC(=O)c1c(N)sc(C(=O)Nc2ccccc2OC)c1C
EC50 [1]: 3070 nM

Cc1ccc(NC(=O)c2sc(N)c(C(=O)O)c2C)c(C)c1
EC50 [1]: 296 nM

COC(=O)c1c(N)sc(C(=O)Nc2ccc(N(C)C)cc2)c1C
remaining at 0.5 h, 5 µM [2]: 54.7%
EC50 [1]: 35 nM

Cc1ccc(NC(=O)c2sc(N)c(C(=O)CO)c2C)c(C)c1
EC50 [1]: 809 nM

COC(=O)c1c(N)sc(C(=O)Nc2ccc(C)cc2)c1C
remaining at 0.5 h, 5 µM [2]: 73.2%
EC50 [1]: 10 nM

Cc1ccc(NC(=O)c2sc(N)c(C(=O)NCC#N)c2C)c(C)c1
EC50 [1]: 1590 nM

COC(=O)c1sccc1NC(=O)c1sc(N)c(C(=O)OC)c1C
EC50 [1]: > 10000 nM

Cc1ccc(NC(=O)c2sc(N)c(C(N)=O)c2C)c(C)c1
EC50 [1]: 979 nM

COC(=O)c1c(N)sc(C(=O)Nc2ccc(C#N)cc2)c1C
remaining at 0.5 h, 5 µM [2]: 83.7%
EC50 [1]: 82 nM

Cc1ccc(NC(=O)c2sc(N)c(C(=O)OC(C)C)c2C)c(C)c1
EC50 [1]: 1520 nM

CCOC(=O)c1c(N)sc(C(=O)Nc2ccc(C)cc2C)c1C
remaining at 0.5 h, 5 µM [2]: 60.6%
EC50 [1]: 197 nM

Cc1ccc(NC(=O)c2sc(N)c(C(=O)OCc3ccccc3)c2C)c(C)c1
EC50 [1]: > 10000 nM

CC(=O)c1c(N)sc(C(=O)Nc2ccc(F)cc2)c1C
remaining at 0.5 h, 5 µM [2]: 49.2%
EC50 [1]: 160 nM
